# Test results from patent US10556900B2, “TrkA kinase inhibitors, compositions and methods thereof” (Merck Sharp & Dohme Corp., priority 2015, dated 2020).
# Target: human TrkA receptor (Homo sapiens (Human), UniProt P04629)
# Assay: TrkA functional activity, DiscoverX PathHunter assay (NGF-stimulated U2OS cells)
# Format: cell-based
# Details: U2OS cells expressing human TrkA-Prolink, Shc1-EA and p75NTR; compound 1 h, then NGF (~80% of maximal response) 3 h; luminescence
# Protocol: TrkA functional activity was measured using a DiscoverX PathHunter assay. In this assay, U2OS cells express the human TrkA receptor as a fusion with the weakly complementing fragment of B-galactosidase, which DiscoverX calls “Prolink (PK)”; additionally, Shc1 is fused with a larger fragment, which is called “Enzyme Acceptor (EA)”. Activation of the TrkA receptor, upon NGF addition, results in the kinase domain being phosphorylated, resulting in subsequent recruitment of Shc1-EA protein. That recruitment results in an active B-galactosidase enzyme that is detected by addition of a chemiluminescent substrate. The human p75^NTR protein was also expressed as a co-receptor for NGF.
# All reagents were purchased from DiscoverX, except for the receptor agonists (NGF, BDNF, NT3) which were purchased from Peprotech. Cells were expanded and frozen into cryovials, and stored in the vapor phase of liquid nitrogen, and thawed immediately before use. Thawed cells were added to a 384-well plate at 7500 cells/well, and allowed to incubate overnight. Compound at various concentrations was added the following morning and allowed to incubate on cells for 1 h. Then, NGF was added at a concentration sufficient to elicit ˜80% of a maximal response and allowed to incubate for 3 h at ambient temperature. DiscoverX PathHunter detection reagent was then added and the plate was further incubated for 1 h in the dark. The plate was then read via luminescence on the Perkin Elmer Envision.
# Sequence of human TrkA receptor (P04629 33-796): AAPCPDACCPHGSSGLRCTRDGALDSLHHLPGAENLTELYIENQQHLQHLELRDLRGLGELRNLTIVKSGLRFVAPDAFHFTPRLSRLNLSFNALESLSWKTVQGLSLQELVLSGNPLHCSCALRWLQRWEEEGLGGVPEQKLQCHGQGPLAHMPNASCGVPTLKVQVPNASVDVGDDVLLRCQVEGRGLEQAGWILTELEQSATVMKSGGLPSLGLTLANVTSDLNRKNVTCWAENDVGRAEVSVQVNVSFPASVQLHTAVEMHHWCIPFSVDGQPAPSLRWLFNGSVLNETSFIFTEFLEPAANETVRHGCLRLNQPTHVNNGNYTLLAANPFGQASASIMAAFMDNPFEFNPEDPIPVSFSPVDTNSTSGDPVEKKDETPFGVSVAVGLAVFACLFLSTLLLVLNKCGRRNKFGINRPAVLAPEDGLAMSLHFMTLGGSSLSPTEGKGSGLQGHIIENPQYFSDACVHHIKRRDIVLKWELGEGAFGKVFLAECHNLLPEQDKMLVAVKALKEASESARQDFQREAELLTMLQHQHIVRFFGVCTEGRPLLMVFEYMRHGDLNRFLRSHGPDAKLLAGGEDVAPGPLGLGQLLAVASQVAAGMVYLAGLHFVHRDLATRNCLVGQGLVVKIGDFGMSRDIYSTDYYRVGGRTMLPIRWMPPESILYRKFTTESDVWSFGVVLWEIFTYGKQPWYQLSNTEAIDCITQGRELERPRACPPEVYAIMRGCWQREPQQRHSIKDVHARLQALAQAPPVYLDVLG
row,Compound,IC50
1,"CC(O)c1nc2c(NC(=O)c3ccc(C(F)(F)F)c(-c4ccn(C)n4)c3)c(-c3ccccc3)ccc2s1 (racemic) [Compound 6, (R and S)—N-(2-(1-Hydroxyethyl)-5-phenylbenzo[d]thiazol-4-yl)-3-(1-methyl-1H-pyrazol-3-yl)-4-(trifluoromethyl)benzamide]",11 nM
2,"CC(O)c1n[nH]c2c(NC(=O)c3cc(-c4ncccn4)c(C(F)(F)F)cc3F)c(-c3ccccc3)ccc12 (racemic) [Compound 46, (R) and (S)-2-Fluoro-N-(3-(1-hydroxyethyl)-6-phenyl-1H-indazol-7-yl)-5-(pyrimidin-2-yl)-4-(trifluoromethyl)benzamide]",2.9 nM
3,"CC(O)c1n[nH]c2c(NC(=O)c3cc(-c4ncccn4)c(C(F)(F)F)cc3F)c(-c3ccccc3)ccc12 (racemic) [Compound 47, (R) and (S)-2-Fluoro-N-(3-(1-hydroxyethyl)-6-phenyl-1H-indazol-7-yl)-5-(pyrimidin-2-yl)-4-(trifluoromethyl)benzamide]",4.5 nM
4,"CC(O)c1cnc2c(NC(=O)c3cc(-c4ncccn4)c(C(F)(F)F)cc3F)c(-c3ccccc3)ncn12 (racemic) [Compound 71, (R and S)-2-Fluoro-N-(3-(1-hydroxyethyl)-7-phenylimidazo[1,2-c]pyrimidin-8-yl)-5-(pyrimidin-2-yl)-4-(trifluoromethyl)benzamide]",6.6 nM
5,"CC(O)c1nc2c(NC(=O)c3ccc(C(F)(F)F)c(-c4ccn(C)n4)c3)c(-c3ccccc3)ccc2s1 (single isomer, unassigned) [Compound 5, (R and S)—N-(2-(1-Hydroxyethyl)-5-phenylbenzo[d]thiazol-4-yl)-3-(1-methyl-1H-pyrazol-3-yl)-4-(trifluoromethyl)benzamide]",13 nM
6,"CC(O)c1cnc2c(NC(=O)c3cc(-c4ncccn4)c(C(F)(F)F)cc3F)c(-c3ccccc3)ccn12 (single isomer, unassigned) [Compound 9, (R) or (S)-2-Fluoro-N-(3-(1-hydroxyethyl)-7-phenylimidazo[1,2-a]pyridin-8-yl)-5-(pyrimidin-2-yl)-4-(trifluoromethyl)benzamide]",3.3 nM
7,"CC(O)c1cnc2c(NC(=O)c3cc(-c4ncccn4)c(C(F)(F)F)cc3F)c(-c3ccccc3)ccn12 (single isomer, unassigned) [Compound 10, (R) or (S)-2-Fluoro-N-(3-(1-hydroxyethyl)-7-phenylimidazo[1,2-a]pyridin-8-yl)-5-(pyrimidin-2-yl)-4-(trifluoromethyl)benzamide]",1.1 nM
8,"CC(O)c1cnc2c(NC(=O)c3ccc(C(F)(F)F)c(-c4ccn(C)n4)c3)c(-c3ccccc3)ccn12 (single isomer, unassigned) [Compound 14, (R) or (S)-N-[3-(1-hydroxyethyl)-7-phenylimidazo[1,2-a]pyridin-8-yl]-3-(1-methyl-1H-pyrazol-3-yl)-4-(trifluoromethyl)benzamide]",5.1 nM
9,"CC(O)c1cnc2c(NC(=O)c3ccc(C(F)(F)F)c(-c4ccn(C)n4)c3)c(-c3ccccc3)ccn12 (single isomer, unassigned) [Compound 15, (R) or (S)-N-[3-(1-hydroxyethyl)-7-phenylimidazo[1,2-a]pyridin-8-yl]-3-(1-methyl-1H-pyrazol-3-yl)-4-(trifluoromethyl)benzamide]",2.2 nM
10,"CC(O)c1cnc2c(NC(=O)c3cc(-c4ccn(C)n4)c(C(F)(F)F)cc3F)c(-c3ccccc3)ccn12 (single isomer, unassigned) [Compound 25, (R) or (S)-2-fluoro-N-[3-(1-hydroxyethyl)-7-phenylimidazo[1,2-a]pyridin-8-yl]-5-(1-methyl-1H-pyrazol-3-yl)-4-(trifluoromethyl)benzamide]",0.81 nM
11,"CC(O)c1cnc2c(NC(=O)c3cc(-c4ccn(C)n4)c(C(F)(F)F)cc3F)c(-c3ccccc3)ccn12 (single isomer, unassigned) [Compound 26, (R) or (S)-2-fluoro-N-[3-(1-hydroxyethyl)-7-phenylimidazo[1,2-a]pyridin-8-yl]-5-(1-methyl-1H-pyrazol-3-yl)-4-(trifluoromethyl)benzamide]",0.31 nM
12,"CC(O)c1cnc2c(NC(=O)c3cc(-c4cc[nH]n4)c(C(F)(F)F)cc3F)c(-c3ccccc3)ccn12 (single isomer, unassigned) [Compound 27, (R) or (S)-2-fluoro-N-[3-(1-hydroxyethyl)-7-phenylimidazo[1,2-a]pyridin-8-yl]-5-(1H-pyrazol-3-yl)-4-(trifluoromethyl)benzamide]",3.5 nM
13,"CC(O)c1cnc2c(NC(=O)c3cc(-c4cc[nH]n4)c(C(F)(F)F)cc3F)c(-c3ccccc3)ccn12 (single isomer, unassigned) [Compound 28, (R) or (S)-2-fluoro-N-[3-(1-hydroxyethyl)-7-phenylimidazo[1,2-a]pyridin-8-yl]-5-(1H-pyrazol-3-yl)-4-(trifluoromethyl)benzamide]",1.8 nM
14,"CC(O)c1cnc2c(NC(=O)c3cc(-c4ccccn4)c(C(F)(F)F)cc3F)c(-c3ccccc3)ccn12 (single isomer, unassigned) [Compound 29, (R) or (S)-2-fluoro-N-[3-(1-hydroxyethyl)-7-phenylimidazo[1,2-a]pyridin-8-yl]-5-pyridin-2-yl-4-(trifluoromethyl)benzamide]",1.7 nM
15,"CC(O)c1cnc2c(NC(=O)c3cc(-c4ccccn4)c(C(F)(F)F)cc3F)c(-c3ccccc3)ccn12 (single isomer, unassigned) [Compound 30, (R) or (S)-2-fluoro-N-[3-(1-hydroxyethyl)-7-phenylimidazo[1,2-a]pyridin-8-yl]-5-pyridin-2-yl-4-(trifluoromethyl)benzamide]",0.74 nM
16,"CC(O)c1n[nH]c2c(NC(=O)c3ccc(C(F)(F)F)c(-c4ccn(C)n4)c3)c(-c3ccccc3)ccc12 (single isomer, unassigned) [Compound 48, (R) or (S)-N-[3-(1-hydroxyethyl)-6-phenyl-1H-indazol-7-yl]-3-(1-methyl-1H-pyrazol-3-yl)-4-(trifluoromethyl)benzamide]",0.9 nM
17,"CC(O)c1n[nH]c2c(NC(=O)c3ccc(C(F)(F)F)c(-c4ccn(C)n4)c3)c(-c3ccccc3)ccc12 (single isomer, unassigned) [Compound 49, (R) or (S)-N-[3-(1-hydroxyethyl)-6-phenyl-1H-indazol-7-yl]-3-(1-methyl-1H-pyrazol-3-yl)-4-(trifluoromethyl)benzamide]",2 nM
18,"CC(O)c1cnc2c(NC(=O)c3cc(-c4ncccn4)c(C(F)(F)F)cc3F)c(-c3ccc(F)cc3)ccn12 (single isomer, unassigned) [Compound 52, (R) or (S)-2-fluoro-N-[7-(4-fluorophenyl)-3-(1-hydroxyethyl)imidazo[1,2-a]pyridin-8-yl]-5-pyrimidin-2-yl-4-(trifluoromethyl)benzamide]",4.9 nM
19,"CC(O)c1cnc2c(NC(=O)c3cc(-c4ncccn4)c(C(F)(F)F)cc3F)c(-c3ccc(F)cc3)ccn12 (single isomer, unassigned) [Compound 53, (R) or (S)-2-fluoro-N-[7-(4-fluorophenyl)-3-(1-hydroxyethyl)imidazo[1,2-a]pyridin-8-yl]-5-pyrimidin-2-yl-4-(trifluoromethyl)benzamide]",29 nM
20,"CC(O)c1cnc2c(NC(=O)c3cc(-c4ncccn4)c(C(F)(F)F)cc3F)c(-c3ccccc3)ncn12 (single isomer, unassigned) [Compound 72, (R and S)-2-Fluoro-N-(3-(1-hydroxyethyl)-7-phenylimidazo[1,2-c]pyrimidin-8-yl)-5-(pyrimidin-2-yl)-4-(trifluoromethyl)benzamide]",5.1 nM
21,"[2H]C(C)(O)c1cnc2c(NC(=O)c3cc(-c4ncccn4)c(C(F)(F)F)cc3F)c(-c3ccccc3)ccn12 (single isomer, unassigned) [Compound 74, (R and S)-2-Fluoro-N-(3-(1-hydroxyethyl-1-d)-7-phenylimidazo[1,2-a]pyridin-8-yl)-5-(pyrimidin-2-yl)-4-(trifluoromethyl)benzamide]",4.2 nM
22,"[2H]C(C)(O)c1cnc2c(NC(=O)c3cc(-c4ncccn4)c(C(F)(F)F)cc3F)c(-c3ccccc3)ccn12 (single isomer, unassigned) [Compound 75, (R and S)-2-Fluoro-N-(3-(1-hydroxyethyl-1-d)-7-phenylimidazo[1,2-a]pyridin-8-yl)-5-(pyrimidin-2-yl)-4-(trifluoromethyl)benzamide]",2 nM
23,"Cn1ccc(-c2cc(C(=O)Nc3c(-c4ccccc4)ccc4nc(C(C)(C)O)cn34)ccc2C(F)(F)F)n1 [Compound 1, N-(2-(2-Hydroxypropan-2-yl)-6-phenylimidazo[1,2-a]pyridin-5-yl)-3-(1-methyl-1H-pyrazol-3-yl)-4-(trifluoromethyl)benzamide]",17 nM
24,"Cn1ccc(-c2cc(C(=O)Nc3c(-c4ccccc4)ccn4cc(C(C)(C)O)nc34)ccc2C(F)(F)F)n1 [Compound 2, N-(2-(2-Hydroxypropan-2-yl)-7-phenylimidazo[1,2-a]pyridin-8-yl)-3-(1-methyl-1H-pyrazol-3-yl)-4-(trifluoromethyl)benzamide]",139 nM
25,"Cn1ccc(-c2cc(C(=O)Nc3c(-c4ccccc4)ccc4nc(C(C)(C)O)sc34)ccc2C(F)(F)F)n1 [Compound 3, N-(2-(2-Hydroxypropan-2-yl)-6-phenylbenzo[d]thiazol-7-yl)-3-(1-methyl-1H-pyrazol-3-yl)-4-(trifluoromethyl)benzamide]",323 nM
